Assay results reported in patent US20150315188A1, “COMPOUNDS AND METHODS FOR TREATMENT OF HYPERTENSION” (MEDIVATION TECHNOLOGIES, INC., priority 2012, published 2015).

How the values were obtained:
[1] = target: T1, Human adrenergic α1B receptor (Homo sapiens, UniProt P35368); assay: β-Arrestin GPCR functional assay, adrenergic α1B (Protocol B); type: cell-based; conditions: for IC50: β-arrestin, antagonist vs nor-epinephrine EC80
T1 sequence (P35368 1-520): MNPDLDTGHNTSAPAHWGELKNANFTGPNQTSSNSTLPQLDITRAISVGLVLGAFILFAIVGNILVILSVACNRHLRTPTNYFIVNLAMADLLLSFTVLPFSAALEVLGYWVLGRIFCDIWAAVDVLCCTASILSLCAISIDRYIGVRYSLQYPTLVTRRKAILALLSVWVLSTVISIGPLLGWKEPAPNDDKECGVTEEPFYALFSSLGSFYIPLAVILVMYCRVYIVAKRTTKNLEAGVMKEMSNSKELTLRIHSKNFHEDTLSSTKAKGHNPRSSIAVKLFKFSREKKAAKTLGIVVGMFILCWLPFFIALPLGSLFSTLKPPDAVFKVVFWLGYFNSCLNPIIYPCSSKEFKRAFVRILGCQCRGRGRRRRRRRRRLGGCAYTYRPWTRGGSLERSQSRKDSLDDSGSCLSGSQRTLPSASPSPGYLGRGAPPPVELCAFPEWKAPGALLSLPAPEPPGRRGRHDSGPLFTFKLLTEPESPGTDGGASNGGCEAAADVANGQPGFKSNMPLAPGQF
Method: To evaluate the activity of compounds in β-Arrestin GPCR functional assays, recombinant CHO cell line (DiscoveRX), over expressed with human adrenergic α1B receptor were used. The experiment was done with a kit of DiscoveRX as per recommended protocol of the supplier. Cells were harvested from culture flask using cell dissociation solution (CDS) and plated at a density of 12,000 cells/well in CP reagent (supplied with the kit) in a half area 96-well white polystyrene plate. After 24 h incubation at 37° C., compounds at various concentrations in 1% (final) DMSO were charged to the cells for 30 min at 37° C. Active nor-epinephrine (-NE) at its EC80 concentrations (50 nM) were then added to the cells and incubated for another 90 min at 37° C. Detection mix was prepared by mixing Path Hunter cell assay buffer, Emerald II solution and Galactone star solution in a ratio of 19:5:1 and incubated with the cells for 60 min at RT in the dark. The reading was taken in Envision at luminescence mode. Biochemical assay results are presented as the percent Inhibition in Table B2a, or IC50 values in Table B2b.

[2] = target: T1, Human adrenergic α1B receptor; assay: Radioligand binding, adrenergic α1B (Protocol Group B); set-up: purchased Milipore (Millipore); conditions: for inhibition at 0.1 µM / Percentage inhibition of ligand binding, Adrenergic α1B (0.1 μM): 0.1 μM compound; for inhibition at 0.1 µM / inhibition at 0.3 µM / Ki / Percentage inhibition of ligand binding, Adrenergic α1B (0.1 μM) / Percentage inhibition of ligand binding, Adrenergic α1B (0.3 μM): Protocol Group B; for inhibition at 0.1 µM: read-out: Percentage inhibition of ligand binding, Adrenergic α1B (0.1 μM); for inhibition at 0.3 µM / Percentage inhibition of ligand binding, Adrenergic α1B (0.3 μM): 0.3 μM compound; for inhibition at 0.3 µM: read-out: Percentage inhibition of ligand binding, Adrenergic α1B (0.3 μM); for Ki: estimated Ki; for Percentage inhibition of ligand binding, Adrenergic α1B, 10 nM: 10 nM compound, 0.01 µM; for Percentage inhibition of ligand binding, Adrenergic α1B, 0.032 μM: 0.032 μM compound
Summary of the method: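 Recombinant human α1B membranes incubated with test compound and 0.3 nM [3H]prazosin, 60 min at 25 °C, in 50 mM Tris-HCl pH 7.4, 10 mM MgCl2, 1 mM EDTA; nonspecific binding with 10 μM prazosin. Filter-bound radioactivity counted; values are % inhibition of specific binding or estimated Ki.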

[3] = 0.1 μM compound, nor-epinephrine at EC80 (50 nM)
[4] = 0.3 μM compound, nor-epinephrine at EC80 (50 nM)

Row | SMILES | IC50 [1] | inhibition at 0.1 µM [2] | inhibition at 0.3 µM [2] | Ki [2] | Percentage inhibition of ligand binding, Adrenergic α1B (0.1 μM) [2] | other results
1 | Cc1cc(Cl)c2c(c1)c1c(n2CC(C)(O)c2ccncc2)CCN2CCCC12 (single isomer, unassigned) [91a] | 213 nM | 59% | 81% | 20.9 nM |  | 
2 | Cc1ccc2c(c1)c1c(n2CC(OC2CCCC2)c2ccncc2)CCN(C)C1 (single isomer, unassigned) [35a] | 672 nM |  |  | 60 nM | 40% | Percentage inhibition of ligand binding, Adrenergic α1B (0.3 μM) [2]: 71%
3 | Cc1cc(F)c2c(c1)c1c(n2CC(C)(O)c2ccncc2)CCN2CCCC12 (single isomer, unassigned) [81a] | 91 nM |  | 89% | 14.6 nM | 72% | 
4 | Cc1ccc2c(c1)c1c(n2CC(OCC2CCC2)c2ccncc2)CCN(C)C1 (single isomer, unassigned) [59a] | 350 nM | 69% | 91% | 16 nM |  | 
5 | Cc1ccc2c(c1)c1c(n2CC(C)(O)c2ccncc2)CCN2CCCC12 (single isomer, unassigned) [13b] | 150 nM |  |  | 35 nM |  | Percentage inhibition, Adrenergic α1B [1, 3]: 32%; Percentage inhibition, Adrenergic α1B [1, 4]: 61%
6 | Cc1cc(C)c2c(c1)c1c(n2CC(C)(O)c2ccncc2)CCN2CCCC12 (single isomer, unassigned) [19a] | 107 nM |  | 93% | 7.5 nM | 82% | inhibition at 0.1 µM ([1]; 0.1 μM compound, nor-epinephrine at EC80 (50 nM), read-out: Percentage inhibition, Adrenergic α1B): 45%; Percentage inhibition, Adrenergic α1B [1, 4]: 74%; inhibition at 0.00032 µM ([2]; 0.32 nM compound, concentration series, read-out: Percentage inhibition of ligand binding, Adrenergic α1B, 0.32 nM): 13%; inhibition at 0.001 µM ([2]; 1 nM compound, concentration series, read-out: Percentage inhibition of ligand binding, Adrenergic α1B, 1 nM): 2%; inhibition at 0.0032 µM ([2]; 3.2 nM compound, concentration series, read-out: Percentage inhibition of ligand binding, Adrenergic α1B, 3.2 nM): 7%; Percentage inhibition of ligand binding, Adrenergic α1B, 10 nM ([2]; concentration series): 24%; Percentage inhibition of ligand binding, Adrenergic α1B, 0.032 μM ([2]; concentration series): 61%; inhibition at 0.32 µM ([2]; 0.32 μM compound, concentration series, read-out: Percentage inhibition of ligand binding, Adrenergic α1B, 0.32 μM): 96%; inhibition at 1 µM ([2]; 1 μM compound, concentration series, read-out: Percentage inhibition of ligand binding, Adrenergic α1B, 1 μM): 95%
7 | Cc1cc(C)c2c(c1)c1c(n2CC(C)(O)c2cccnc2)CCN2CCCC12 (single isomer, unassigned) [44a] | 684 nM |  | 71% | 63.7 nM | 40% | 
8 | Cc1ccc2c(c1)c1c(n2CC(C)(O)c2ccnc(F)c2)CCN2CCCC12 (single isomer, unassigned) [48a] | 45 nM | 85% | 94% | 8.15 nM |  | 
9 | Cc1cc(F)c2c(c1)c1c(n2CC(C)(O)c2cccnc2)CCN2CCCC12 (single isomer, unassigned) [79b] |  | 28% | 57% |  |  | 
10 | CC(O)(Cn1c2c(c3cc(Cl)cc(F)c31)C1CCCN1CC2)c1ccncc1 (single isomer, unassigned) [52a] | 149 nM |  | 90% | 11.4 nM | 75% | 
11 | Cc1cc(C)c2c(c1)c1c(n2CC(C)(O)c2ccncc2)CCN2CCCC12 (single isomer, unassigned) [19b] | 351 nM |  |  | 37.5 nM | 60% | Percentage inhibition, Adrenergic α1B [1, 3]: 25%; Percentage inhibition, Adrenergic α1B [1, 4]: 52%; Percentage inhibition of ligand binding, Adrenergic α1B, 1 nM ([2]; 1 nM compound, concentration series, 0.001 µM): 3%; Percentage inhibition of ligand binding, Adrenergic α1B, 3.2 nM ([2]; 3.2 nM compound, concentration series, 0.0032 µM): 6%; Percentage inhibition of ligand binding, Adrenergic α1B, 10 nM ([2]; concentration series): 1%; Percentage inhibition of ligand binding, Adrenergic α1B, 0.032 μM ([2]; concentration series): 15%; Percentage inhibition of ligand binding, Adrenergic α1B (0.3 μM) [2]: 85%; Percentage inhibition of ligand binding, Adrenergic α1B, 0.32 μM ([2]; 0.32 μM compound, concentration series, 0.32 µM): 76%; Percentage inhibition of ligand binding, Adrenergic α1B, 1 μM ([2]; 1 μM compound, concentration series, 1 µM): 87%; inhibition at 3.2 µM ([2]; 3.2 μM compound, concentration series, read-out: Percentage inhibition of ligand binding, Adrenergic α1B, 3.2 μM): 92%
12 | CCOC(Cn1c2c(c3cc(C)ccc31)CN(C)CC2)c1ccncc1 (single isomer, unassigned) [43b] | 1090 nM |  |  | 278 nM | 14% | Percentage inhibition of ligand binding, Adrenergic α1B (0.3 μM) [2]: 30%
13 | Cc1ccc2c(c1)c1c(n2CC(C)(O)c2ccc(F)nc2)CCN2CCCC12 (single isomer, unassigned) [6a] | 121 nM |  |  | 25 nM |  | 
